Data as given in US12570618B2, “Compound, production method therefor, and pharmaceutical composition” (TOKYO UNIVERSITY OF SCIENCE FOUNDATION, priority 2021, dated 2026).

Assays:
HMC-1.2 cells = experiment: cell proliferation inhibitory activity, ATP production (Test Example 1); type: cell-based, human; conditions: for inhibition of cell proliferation (in words): HMC-1.2 cells, FIG. 3; for IC50: Homo sapiens, 48 h, HMC-1.2 cells (KIT^V560G/D816V, imatinib-resistant), cultured 2 days with compound, ATP production, n=3
Source text: (§1) Compounds RS1, RS2, and RS5 obtained in Synthesis Examples 1, 2, and 5, and M-COPA synthesized in the same manner as in Synthesis Example 1 in Patent Document 1 were examined for cell proliferation inhibitory activity against human cultured cancer cells with KIT tyrosine kinase mutation. The human cultured cancer cells used were GIST-T1 cells (KIT^Δ560-578. imatinib-sensitive) and GIST-R9 cells (KIV^Δ560-578/D820V, imatinib-resistant) as gastrointestinal stromal tumor cell lines, and HMC-1.2 cells (KIT^V560G/D816V, imatinib-resistant) as a mast cell leukemia cell line. The cancer cells of each type were seeded on a 96-well plate and cultured overnight, and cultured for 2 days with addition of serially diluted products of the compounds, and the cell proliferation was then measured by quantifying the ATP production (n=3). FIG. 1 to FIG. 3 show the cell proliferation curves for the GIST-T1 cells, GIST-R9 cells, and HMC-1.2 cells.

GIST-R9 cells = experiment: as above; type: cell-based, human; conditions: for inhibition of cell proliferation (in words): GIST-R9 cells, FIG. 2; for IC50: Homo sapiens, 48 h, GIST-R9 cells (KIV^Δ560-578/D820V, imatinib-resistant), cultured 2 days with compound, ATP production, n=3
Source text: as §1

GIST-T1 cells = experiment: as above; type: cell-based, human; conditions: for inhibition of cell proliferation (in words): GIST-T1 cells, FIG. 1; for IC50: Homo sapiens, GISTT1, 48 h, GIST-T1 cells (KIT^Δ560-578, imatinib-sensitive), cultured 2 days with compound, ATP production, n=3
Source text: as §1

[1] = test system: DU-145 (Prostate cancer cell line); experiment: cell proliferation inhibitory activity, WST-8 (Test Example 2); type: cell-based; conditions: Homo sapiens, 48 h, DU-145, 2 days with compound
Source text: (§2) Compounds RS1 to RS7 obtained in Synthesis Examples 1 to 7, and M-COPA synthesized in the same manner as in Synthesis Example 1 in Patent Document 1 were examined for cell proliferation inhibitory activity against human cultured cancer cells. The cancer cells used were eight human cancer cell lines (one skin cancer cell line, one ovarian cancer cell line, one prostate cancer cell line, two lung adenocarcinoma cell lines, one colorectal cancer cell line, two breast adenocarcinoma cell lines). The cancer cells of each type were seeded on a 96-well plate and cultured for 2 days, and cultured for 2 days with addition of serially diluted products of the compounds, and the cell proliferation was then measured by colorimetry with a water-soluble tetrazolium salt (WST-8). Thereafter, 50% cell proliferation inhibitory concentrations (GI50) were calculated from the cell proliferation curves.

[2] = test system: H2228 (Lung adenocarcinoma cell line); experiment: as above; type: cell-based; conditions: Homo sapiens, NCI-H2228, 48 h; H2228, 2 days with compound, WST-8, Table 2
Source text: as §2

[3] = test system: DLD-1 (Colorectal cancer cell line); experiment: as above; type: cell-based; conditions: Homo sapiens, 48 h, DLD-1, 2 days with compound
Source text: as §2

[4] = test system: H1650 (Lung adenocarcinoma cell line); experiment: as above; type: cell-based; conditions: Homo sapiens, NCI-H1650, 48 h; H1650, 2 days with compound, WST-8, Table 2
Source text: as §2

[5] = test system: MCF-7 (Breast adenocarcinoma cell line); experiment: as above; type: cell-based; conditions: Homo sapiens, MCF7, 48 h, MCF-7, 2 days with compound
Source text: as §2

[6] = test system: Hs925t (Skin cancer cell line); experiment: as above; type: cell-based; conditions: Homo sapiens, 48 h, 2 days with compound
Source text: as §2

[7] = test system: SK-OV3 (Ovarian cancer cell line); experiment: as above; type: cell-based; conditions: Homo sapiens, SK-OV-3, 48 h, SK-OV3, 2 days with compound
Source text: as §2

[8] = test system: Hs578t (Breast adenocarcinoma cell line); experiment: as above; type: cell-based; conditions: Homo sapiens, Hs-578T, 48 h, 2 days with compound
Source text: as §2

[9] = test system: H226 (Lung squamous cell carcinoma cell line); experiment: cell proliferation inhibitory activity, WST-8 (Test Example 3); type: cell-based; conditions: Homo sapiens, NCI-H226, 48 h; H226, 2 days with compound, WST-8, Table 3
Experimental: (§3) Compounds RS8 to RS10 obtained in Synthesis Examples 8 to 10 were examined for cell proliferation inhibitory activity against human cultured cancer cells. The cancer cells used were two human lung adenocarcinoma cell lines and one human lung squamous cell carcinoma cell line. The cancer cells of each type were seeded on a 96-well plate and cultured for 2 days, and cultured for 2 days with addition of serially diluted products of the compounds, and the cell proliferation was then measured by colorimetry with a water-soluble tetrazolium salt (WST-8). Thereafter, 50% cell proliferation inhibitory concentrations (GI50) were calculated from the cell proliferation curves.

[10] = test system: H2228 (Lung adenocarcinoma cell line); experiment: as above; type: cell-based; conditions: Homo sapiens, NCI-H2228, 48 h; H2228, 2 days with compound, WST-8, Table 3
Experimental: as §3

[11] = test system: H1650 (Lung adenocarcinoma cell line); experiment: as above; type: cell-based; conditions: Homo sapiens, NCI-H1650, 48 h; H1650, 2 days with compound, WST-8, Table 3
Experimental: as §3

Row | SMILES | GI50 [1] [nM] | GI50 [2] [nM] | GI50 [3] [nM] | GI50 [4] [nM] | GI50 [5] [nM] | GI50 [6] [nM] | GI50 [7] [nM] | GI50 [8] [nM] | GI50 [9] [nM] | GI50 [10] [nM] | GI50 [11] [nM] | inhibition of cell proliferation (in words) (HMC-1.2 cells) | IC50 (HMC-1.2 cells) [nM] | inhibition of cell proliferation (in words) (GIST-R9 cells) | IC50 (GIST-R9 cells) [nM] | inhibition of cell proliferation (in words) (GIST-T1 cells) | IC50 (GIST-T1 cells) [nM]
1 | C[C@@H]1[C@@H](O)[C@H](C)C[C@@H]2C=C[C@H](C)[C@H](/C=C/C=C(\Br)C(=O)NCc3ccccn3)[C@@H]12 [RS8, (2Z,4E)-2-Bromo-5-((1′S,2′S,4′aR,6′R,7′S,8′S,8′aS)-7′-hydroxy-2′,6′,8′-trimethyl-1′,2′,4′a,5′,6′,7′,8′,8′a-octahydronaphthalen-1′-yl)-N-(pyridin-2″-ylmethyl)penta-2,4-dienamide] | – | – | – | – | – | – | – | – | 40 | 300 | 300 | – | – | – | – | – | –
2 | C[C@@H]1[C@@H](O)[C@H](C)C[C@@H]2C=C[C@H](C)[C@H](/C=C/C=C(\Br)C(=O)OCc3cccnc3)[C@@H]12 [RS9, Pyridin-3″-ylmethyl (2Z,4E)-2-bromo-5-((1′S,2′S,4′aR,6′R,7′S,8′S,8′aS)7′-hydroxy-2′,6′,8′-trimethyl-1′,2′,4′a,5′,6′,7′,8′,8′a-octahydronaphthalen-1′-yl)penta-2,4-dienoate] | – | – | – | – | – | – | – | – | 40 | 400 | 200 | – | – | – | – | – | –
3 | C[C@@H]1[C@@H](O)[C@H](C)C[C@@H]2C=C[C@H](C)[C@H](/C=C/C=C(\Br)C(=O)OCc3ccccn3)[C@@H]12 [RS10, Pyridin-2″-ylmethyl (2Z,4E)-2-bromo-5-((1′S,2′S,4′aR,6′R,7′S,8′S,8′aS)-7′-hydroxy-2′,6′,8′-trimethyl-1′,2′,4′a,5′,6′,7′,8′,8′a-octahydronaphthalen-1′-yl)penta-2,4-dienoate] | – | – | – | – | – | – | – | – | 300 | 700 | 500 | – | – | – | – | – | –

The next lines start with results.

Row | GI50 [1] [nM] | GI50 [2] [nM] | GI50 [3] [nM] | GI50 [4] [nM] | GI50 [5] [nM] | GI50 [6] [nM] | GI50 [7] [nM] | GI50 [8] [nM] | GI50 [9] [nM] | GI50 [10] [nM] | GI50 [11] [nM] | SMILES | inhibition of cell proliferation (in words) (HMC-1.2 cells) | IC50 (HMC-1.2 cells) [nM] | inhibition of cell proliferation (in words) (GIST-R9 cells) | IC50 (GIST-R9 cells) [nM] | inhibition of cell proliferation (in words) (GIST-T1 cells) | IC50 (GIST-T1 cells) [nM]
4 | 10 | 40 | 1 | 30 | 30 | 0.3 | 3 | 30 | – | – | – | C[C@@H]1[C@@H](O)[C@H](C)C[C@@H]2C=C[C@H](C)[C@H](/C=C/C=C(\Br)C(=O)NCc3cncs3)[C@@H]12 [RS2, (2Z,4E)-2-Bromo-5-((1′S,2′S,4′aR,6′R,7′S,8′S,8′aS)-7′-hydroxy-2′,6′,8′-trimethyl-1′,2′,4′a,5′,6′,7′,8′,8′a-octahydronaphthalen-1′-yl)-N-(thiazol-5″-ylmethyl)penta-2,4-dienamide] | in a concentration-dependent manner | 37 | in a concentration-dependent manner | 169 | in a concentration-dependent manner | 128
5 | 10 | 30 | 0.3 | 50 | 80 | 0.1 | 1 | 30 | – | – | – | C[C@@H]1[C@@H](O)[C@H](C)C[C@@H]2C=C[C@H](C)[C@H](/C=C/C=C(\Br)C(=O)NCc3cccnc3)[C@@H]12 [RS5, (2Z,4E)-2-Bromo-5-((1′S,2′S,4′aR,6′R,7′S,8′S,8′aS)-7′-hydroxy-2′,6′,8′-trimethyl-1′,2′,4′a,5′,6′,7′,8′,8′a-octahydronaphthalen-1′-yl)-N-(pyridin-3″-ylmethyl)penta-2,4-dienamide] | in a concentration-dependent manner | 42 | in a concentration-dependent manner | 292 | in a concentration-dependent manner | 169
